Holding throughout (assay): NCI tumour cell line growth inhibition, 48 h
In experiment [1] the test system is HL-60(TB) leukemia.
The subject of experiment [2] is LOX IMVI melanoma.
The subject of experiment [3] is MOLT-4 leukemia.
The subject of experiment [4] is OVCAR-5 ovarian.
The subject of experiment [5] is OVCAR-8 ovarian.
Experiment [6] concerns SF-268 CNS.
For experiment [7], the system named is SF-295 CNS.
Experiment [8] has as its system SR leukemia.
In experiment [9] the test system is SW-620 colon.
The subject of experiment [10] is UACC-62 melanoma.

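A five-concentration, 48-hour dose response in 96-well plates underlies each endpoint, interpolated linearly between surrounding concentrations. The concentration for 50% growth inhibition is given as GI50. The concentration for full growth arrest is given as TGI.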

The results in this text go back to PubChem BioAssay (NCI).

Turning to `c1ccc2cc(Cn3cc[n+](Cc4ccc5ccccc5c4)c3)ccc2c1`, the GI50 in experiment [1] was 0.264 µM; in experiment [2] it was 1.1 µM; in experiment [3], 1.24 µM; in experiment [4], 1.71 µM; in [5], 1.64 µM; in [6], 1.28 µM. Further, the GI50 was 3.65 µM in [7], 1.03 µM in experiment [8], 2.05 µM in experiment [9] and 0.478 µM in experiment [10]. In addition, the TGI in experiment [1] is 1.35 µM; in [2] it was 2.39 µM; in experiment [3], 8.38 µM; in [4], 7.19 µM; in experiment [5] it was 12.3 µM; in experiment [6], 11.1 µM. Further, the TGI in experiment [7] is 19.6 µM; in experiment [8], 3.42 µM; in [9] it was 13.6 µM; in experiment [10], 1.98 µM.
For `COc1ccc(OC)c(NC(=O)c2cccc(NC3=C(Cl)C(=O)N(Cc4ccccc4)C3=O)c2)c1`, the GI50 in [1] was 5.82 µM; in experiment [2] it was more than 100 µM; in experiment [3] it was 7.66 µM; in experiment [4] it was more than 73 µM; in experiment [5] it was more than 76.8 µM; in [6], more than 69.2 µM. Besides, the GI50 was more than 75.3 µM in [7], 7.8 µM in experiment [8], more than 100 µM in experiment [9] and more than 63.1 µM in experiment [10]. Besides, the TGI in experiment [1], in experiment [2], in [3], in [4], in experiment [5] and in [6] was more than 100 µM throughout. Further, the TGI in [7] is more than 100 µM; in [8], more than 87.6 µM; in experiment [9], more than 100 µM; in experiment [10] it was more than 100 µM.
Regarding `CC(CN(C)C)S(=O)(=O)c1ccc(-c2cnc(N)c(C(=O)Nc3ccccc3)n2)cc1` (stereo not given), the GI50 was 3.05 µM in experiment [1]; 2.82 µM in [2]; 3.15 µM in experiment [3]; 11.8 µM in experiment [4]; 10.3 µM in [5]; 6.8 µM in experiment [6]. For the same compound, the GI50 in experiment [7] is 8.49 µM; in experiment [8], 1.39 µM; in experiment [9], 3.84 µM; in [10], 6.28 µM. The TGI in experiment [1] was 11 µM; in experiment [2], 16.7 µM; in experiment [3], 14.2 µM; in [4], 34.5 µM; in experiment [5] it was more than 89.8 µM; in experiment [6] it was 39.8 µM. Moreover, the TGI is 25.7 µM in experiment [7], 8.53 µM in experiment [8], 19.2 µM in experiment [9] and 21.6 µM in [10].
As for `O=C1NC(O)c2ccccc2O1` (stereo not given), the TGI in [1], in experiment [2], in experiment [3], in [4], in [5] and in experiment [6] was more than 100 µM throughout. For the same compound, the TGI in [7], in experiment [8], in [9] and in experiment [10] was more than 100 µM each time.
Consider `O=P(O)(O)OCC1OC(n2cnc3c(NCc4ccco4)ncnc32)C(O)C1O` (stereo not given), for which the GI50 in [1] is 0.231 µM; in experiment [2] it was 0.374 µM; in experiment [3], 0.339 µM; in [4], 5.64 µM; in experiment [5], 0.861 µM; in experiment [6] it was 3.62 µM. For the same compound, the GI50 in experiment [7] is 2.53 µM; in [8], 1.11 µM; in experiment [9], 0.993 µM; in experiment [10], 2.71 µM. In addition, the TGI in [1] is 0.601 µM; in experiment [2], 1.47 µM; in experiment [3], 1.9 µM; in [4], more than 100 µM; in experiment [5], 6.9 µM; in [6], more than 79.6 µM. Moreover, the TGI was more than 35.1 µM in experiment [7], 3.93 µM in experiment [8], more than 44.3 µM in [9] and 12.5 µM in experiment [10].
As to `Clc1ccccc1[C@@H]1C[C@@H]2Cc3cc(Br)c4ccccc4c3N1O2`, the GI50 in experiment [1] was 4.4 µM; in [2], 6.28 µM; in experiment [3], 6.94 µM; in experiment [4], 16.9 µM; in [5], 5.45 µM; in [6] it was 5.02 µM. Also, the GI50 in [7] was 3.49 µM; in experiment [8] it was 3.33 µM; in experiment [9] it was 3.69 µM; in experiment [10], 4.29 µM. The TGI in [1], in [2], in experiment [3], in experiment [4], in experiment [5] and in [6] was more than 100 µM in each case. In addition, the TGI in [7], in [8], in experiment [9] and in experiment [10] was more than 100 µM throughout.
On to `COc1ccc(C(C#N)=C2C=CC(=NO)C=C2)cc1`, for which the GI50 is 3.08 µM in experiment [1]; 1.91 µM in experiment [2]; 4.58 µM in [3]; 19.5 µM in experiment [4]; 10.2 µM in [5]; 3.81 µM in [6]. Moreover, the GI50 in experiment [7] is 4.8 µM; in experiment [8], 3.53 µM; in experiment [9], 2.09 µM; in experiment [10], 8.34 µM. Also, the TGI was 57.5 µM in [1]; 4.5 µM in experiment [2]; more than 100 µM in experiment [3]; 34.3 µM in [4]; 22.9 µM in [5]; 14.2 µM in [6]. Besides, the TGI in [7] is 17.1 µM; in experiment [8], more than 100 µM; in experiment [9], 4.39 µM; in experiment [10] it was 21.9 µM.
With `CSC(=Nc1ccccc1Cl)NC(=O)c1ccc(Br)cc1`, the TGI was more than 100 µM in experiment [1]; more than 100 µM in [2]; 54.9 µM in experiment [3]; more than 100 µM in experiment [4]; more than 100 µM in experiment [5]; more than 100 µM in experiment [6]. Also, the TGI in experiment [7], in [8], in [9] and in [10] was more than 100 µM throughout.
